# Read-outs that look alike come from different tables or passages of the source.
# Tests used:
# [1] = system: primary adipocytes; test: Primary adipocyte glucose uptake assay (14C glucose); conditions: test compound 50 mM without insulin, compared to samples containing only insulin (final concentration=100 μm)
# [2] = system: insulin receptor (IR); test: Phosphotyrosine enzyme linked immunosorbent assay: pTyr on insulin receptor in NIH3T3 cells over-expressing human IR (H25 cells); conditions: for ACTIVITY (compared to control) / CONC.: Table I; for CONC.: concentration of the compound which produces the percentage increase in phosphotyrosine over the vanadate control, 90 min incubation, no insulin; for EC50: read-out: ACTIVITY EC50
Compound,response in the primary adipocyte glucose uptake assay compared with the insulin control [1],ACTIVITY (compared to control) ([2]; […]) [%],CONC. [2] [µM],"EC50 ([2]; Table II, […], no lot stated) [µM]",also measured
"O=[N+]([O-])c1cnc(Sc2n[nH]c(-c3cccs3)n2)s1 [Compound 3, 3-[(5-nitrothiazol-2-yl)mercapto]-5-(thien-2-yl)-1,2,4-triazole]",did not give a response greater than or equal to the insulin control,50,77,22 to 32,
"Cc1nccc(C(F)(F)F)c1-c1nnc(Sc2ncc([N+](=O)[O-])s2)o1 [Compound 86, 2-[2-Methyl-4-(trifluoromethyl)pyrid-3-yl]-5-[(5-nitrothiazol-2-yl)mercapto]-1,3,4-oxadiazole]",did not give a response greater than or equal to the insulin control,,,,"increase in PTYR ([2]; Table II, at 25 μM): 59%"
"CCn1nc(C)cc1-c1nnc(Sc2ncc([N+](=O)[O-])s2)n1CCCOC [Compound 9, 3-(1-ethyl-3-methylpyrazol-5-yl)-4-(3-methoxy-n-propyl)-5-[5-(nitrothiazol-2-yl)mercapto]-1,2,4-triazole]",did not give a response greater than or equal to the insulin control,50,3.9,,"EC50 ([2]; Table II, LOT 2): 6 µM; EC50 ([2]; Table II, LOT3): 16 µM"
CCCCCn1c(O)nnc1Sc1ncc([N+](=O)[O-])s1 [Compound 100],did not give a response greater than or equal to the insulin control,,,,"one point determination, effect on PTYR ([2]; Table II, at 100 μm): no effect"
O=[N+]([O-])c1cnc(Sc2nc3cnccc3[nH]2)s1 [Compound 101],did not give a response greater than or equal to the insulin control,,,7 to 15,
"O=[N+]([O-])c1cnc(Sc2n[nH]c(-c3ccccc3)n2)s1 [Compound 1, 3-[(5-nitrothiazol-2-yl)mercapto]-5-phenyl-1,2,4-triazole]",did not give a response greater than or equal to the insulin control,30,53,17,
"O=[N+]([O-])c1cnc(Sc2nnc(O)n2-c2ccccc2)s1 [Compound 5, 3-hydroxy-5-[(5-nitrothiazol-2-yl)mercapto]-4-phenyl-1,2,4-triazole]",did not give a response greater than or equal to the insulin control,30,13,13 to 20,
Cn1nnnc1Sc1ncc([N+](=O)[O-])s1 [Compound 15],did not give a response greater than or equal to the insulin control,,,,"increase in PTYR ([2]; Table II, at 50 μM, LOT2): 40%; EC50 ([2]; Table II, LOT 1): 8.4 µM"
Nc1nnc(Sc2ncc([N+](=O)[O-])s2)s1 [Compound 14],did not give a response greater than or equal to the insulin control,,,8,
"O=[N+]([O-])c1cnc(Sc2ncc(C(F)(F)F)cn2)s1 [Compound 83, 2-[(5-Nitrothiazol-2-yl)mercapto]-5-(trifluoromethyl)pyrimidine]",did not give a response greater than or equal to the insulin control,,,8.8,
"O=[N+]([O-])c1cnc(Sc2nc3ccccc3[nH]2)s1 [Compound 79, 2-[(5-Nitrothiazol-2-yl)mercapto]benzimidazole]",did not give a response greater than or equal to the insulin control,,,,"EC50 ([2]; Table III, […]): 23 µM"
"O=[N+]([O-])c1cnc(Sc2nnc(O)n2C2CCCCC2)s1 [Compound 6, 4-Cyclohexyl-3-hydroxy-5-[(5-nitrothiazol-2-yl)mercapto]-1,2,4-triazole]",did not give a response greater than or equal to the insulin control,30,100,,"increase (PTYR) ([2]; Table II, at 100 μM): 50%"

# — patent US6080772A, “Thiazole compounds and methods of modulating signal transduction” (Sugen, Inc., priority 1997, dated 2000)
